Data published in US20050256132A1, “Use of ER selective NF-kB inhibitors for the treatment of sepsis” (priority 2003, published 2005).
Entries after “also recorded” stand apart in the source; their conditions may differ.

What was measured:
CK = CK activity in lysate of ERα expressing HAECT-1 cells; type: cell-based, human
Method: (A) The effect of compound 67 on NF-κB mediated luciferase reporter activity in HAECT-1 cells expressing ERα. […] (C) The effect of compound 67 on the human IL-6 promoter luciferase reporter activity in HAECT-1 cells expressing either ERα (squares) or ERβ (diamonds). (D) The remaining lysate from (A) was used to determine CK activity.
HAECT-1 cells (Chadwick C C, et al., Proc Natl Acad Sciences, 2005, 102(7): 2543-2548) were cultured in EGM (GIBCO, Rockville, Md.) containing 10% FBS, 1% GlutaMAX and 0.1% Antimycotic-Antibiotic in Falcon T-175 culture flasks at 34° C. in 5% CO2 and infected for four hours with Ad5-wt-ER virus. After overnight recovery, the cells were infected for 2 hours with the Ad5-3x(NFκB).Luc or Ad5-IL6.Luc virus. Compound 67 and 2 ng/ml IL-1 were added to the cells for 15-20 h and the cell lysate was assayed for luciferase activity and evaluated for CK expression (Stanbio Laboratories, Texas). The values are reported as mean±SEM with n=4 from at least 3 independent experiments.

[1] = Cecal ligation and puncture model in mice; type: in vivo, BALBc mice
Method: The cecal ligation puncture (“CLP”) procedure was derived from a modification of standard methods previously described (Opal S M, et al., Shock 15(4):285-290, 2001). Female, non-pregnant, specific pathogen-free, Albino BALBc mice (20-25 gm) were used in the experiment. […] Animals were allowed to eat and drink sterile water on an ad libitum basis until 12 h before surgery when food was withheld until after the surgical procedure.
Anesthetized animals (methoxyflurane, Mallinckodt Veterninary Inc., Mundeline, Ill.) had the abdominal skin shaved and a midline, abdominal incision was made. The cecum was exteriorized and distended using intraluminal contents from the colon. The cecum was then ligated below the ileocecal valve and punctured twice using a 23-gauge sterile needle. The cecum was returned to the peritoneal cavity and the transversalis fascia was closed along with the skin incision. The skin incision was covered with topical bacitracin ointment. The animals were given a single […] dose of trovafloxacin (20 mg/kg IM) immediately post-operatively and a 1-mL subcutaneous dose of PBS was given as fluid resuscitation. […] All animals underwent necropsy examination for histological evidence of organ injury, pathology scoring of intestinal mucosa, and quantitative bacteriology.
Differences in survival time between groups were analyzed by Kaplan-Meier survival plots and log-rank testing. Other parameters were measured using a Mann-Whitney U-Test for 2 groups or the Kruskal-Wallis one way analysis of variance for 3 or more groups. A p value of <0.05 was considered significant. All data is presented as mean and standard deviation.

COc1ccccc1[C@H](c1cccc2ccccc12)[C@@](C)(C#N)C(=O)N1CCC(c2cccc(C(F)(F)F)c2)CC1 [Example 67, (S,S)-3-(2-methoxyphenyl)-2-methyl-3-(1-naphthyl)-2-({4-[3-(trifluoromethyl)phenyl]piperidin-1-yl}carbonyl)propanenitrile]
elevation of CK activity (CK; at 1 μM): approximately 20%
stimulation of CK expression (CK; compared with E2, FIG. 1D): did not stimulate CK expression comparable to E2
survival vs vehicle control (Kaplan-Meier) ([1]; 50 mg/kg at 0, 24 and 48 hours after CLP, 7 days, FIG. 5): significant survival advantage; also recorded: significantly greater than control
histopathologic scores of small bowel intestinal mucosa ([1]; 50 mg/kg, p<0.05 vs vehicle control): significant preservation of mucosal integrity
systemic cytokine release and endotoxin levels ([1]; 50 mg/kg, vs vehicle control, p=ns): did not differ
